Values joined by “and” are separate entries in the source; they are usually repeats but may differ in a detail not shown here. Equal entries are not always repeated. Where two headings read alike, the source gives them in different places.
How the values were obtained:
[1] = tested on: Non-transfected 293 cells devoid of UL97 kinase activity; assay: Growth inhibition of non-transfected 293 cells by GCV (FIG. 11B); assay type: cell-based, human
[2] = tested on: UL97-transfected 293 cells (293UL); assay: Growth inhibition of 293UL cells by GCV (FIG. 11A); assay type: cell-based, human; details: for IC50: grown 90 h in presence of GCV
Description: 293 cells transfected with pUL97 expression construct (pcDNA3-UL97; see above under 2.1.) were grown for 14 d in presence of geneticin (750 μg/ml). Individual clones were isolated (minimal dilution), re-tested for geneticin resistance and for sensitivity to 100 μM GCV. Clones identified as geneticin resistant and GCV-sensitive were expanded and stored frozen in aliquots for further experiments, after having verified by Western blot their capacity to express UL97 protein.
293UL cells were routinely grown in DMEM supplemented with 10% FCS, glutamine (1%), pyruvate (1%), geneticin (final 0.5 mg G418/ml culture), and penicillin/streptomycin (1%). Medium was changed every 3-4 d, and cells were subcultured before reaching confluency by trypsin/EDTA treatment (exposure of adherent cells to 5 mg/ml trypsin and 2 mg/ml EDTA, dissolved in sterile 0.85% NaCl) and re-seeding in at least 5-fold dilution. Cells were maximally 10 times subcultured before a new frozen batch was used.
For routine antiproliferative assays, 293 UL cells were suspended at 13.8×10^3 cells/ml in complete medium, and 145 μl/well (2000 cells) of this suspension were seeded in 96-well flat-bottom plates (Nunclon #167008). After attachment of the cells for 24 h, drugs were added: All wells received 5 μl GCV (4 mM in complete medium, final concentration 100 μM), and each 3 wells received 50 μl compound (40 μM in complete medium+0.4% DMSO). A control series received 50 μl 40 μM compound only in the absence of GCV. Another control plate, which had received cells or medium only, was glutaraldehyde-fixed or frozen (see below) at the time of drug addition and stained for quantitation of cell density.
Cells were further incubated for 72 h and then analyzed for proliferation (staining with methylene blue or fluorescent dyes, see section 2.4).
A) UL97-transfected 293 cells 1,2,3,4: individual IC50 profiles (averages of triplicates); cells grown for 90 h in presence of GCV.

[3] = target: T1, human cytomegalovirus UL97 protein kinase (Human cytomegalovirus, UniProt P16788); assay: UL97 in-cell-activity assay (transfected 293 cells + GCV; colour conversion / LDH read-out); assay type: cell-based
T1 construct: expressed in transfected cells
Description: Human embryonic kidney cells 293 (ATCC CRL-1573), as cultivated with DMEM medium containing 5% fetal calf serum (FCS), were harvested by trypsinization, rinsed with PBS and seeded in 96-well plates at a cell number of 20,000 per well.
Transfection (Lipofectamin Plus reagents, GibcoBRL) was performed at a cell layer confluency of 50-75%. For this, identical transfection conditions were chosen for 24 wells of the 96-well plate to obtain determinations over a 8-well line in triplicate. One transfection set-up for 24 wells was composed as follows:
Meanwhile, culture media of the 96-well plates were removed by the use of a multichannel pipette and a 50-μl volume of fresh DMEM-0% FCS was given in each well. Then, 25 μl of each transfection set-up was added per well. Plates were incubated for 5 h at 37° C. in a 5% CO2 atmosphere. Subsequent to this incubation, a 125-μl volume of DMEM-10% FCS was added per well and incubated over night at 37° C. in a 5% CO2 atmosphere.
Transfection media were removed from the cells by the use of a multichannel pipette. […]
Visual and photometric determinations of the colour conversion of the phenol red-supplemented culture medium was performed by the use of a computer scanner and an ELISA reader (OD 560 nm).
Measurement of the lactate dehydrogenase (LDH) acitivity in the residual cell layer was performed with the CytoTox 96 Non-Radioactive Cytotoxicity (Promega). […] Thereafter, 50 μl of stop buffer was added and the colour reaction was quantitated by the use of an ELISA reader (OD 490 nm). […]
Five days after addition of the substances, the read-out of signals was performed by the photometric quantification of the colour conversion of the culture medium and, for comparison, by the measurement of LDH activity in the residual cell layers. Qualitative/semi-quantitative illustrations are given by computer scanning figures in (a) for colour conversion, and in (b) for LDH activity. Quantitative values are presented as the results of photometric determinations in (c) for colour conversion, and in (d) for LDH activity. […]

[4] = tested on: 293 cells transfected with wild-type or mutant pUL97 (K355M catalytically inactive); assay type: cell-based, human; details: 5 nM to 500 nM inhibitor, GCV 5-40 μM, wild-type and mutant pUL97, LDH 5 d posttransfection
Source text: If a test compound is capable of inhibiting the kinase, but additionally has a cytotoxic activity, no rescue from cell death would be observed. Thus, the method of the invention preferably comprises the additional step (e) distinguishing between (i) noncytotoxic test compounds having kinase inhibiting properties and (ii) test compounds having kinase inhibiting properties but additional cytotoxic side effects. Furthermore, the effect of a given test compound may be determined at several different concentrations of the test compound in order to obtain a more accurate information of the kinase inhibiting properties and possible unwanted cytotoxic side effects. […] In this manner, the concentration dependency and the target specificity of the inhibitory effect of the test compound and the concentration dependency of a possible cytotoxic effect may be determined together.
Substrate (e.g. ganciclovir) is then added in an appropriate concentration to transfected cells (as indicated in the diagram). […] As a measurement for cell death, either the colour conversion of the medium (containing phenol red as a pH indicator) can the quantified photometrically, or the LDH activity within the residual cell layer can be determined (resulting in low activities when extensive cell death has occurred). Other methods of quantification are also possible (e.g. measurement of cell proliferation). […]

## Nc1nc(O)c2ncn(COC(CO)CO)c2n1 [GCV, ganciclovir]
[1]; Homo sapiens, HEK293, non-transfected 293 cells
  IC50: 3700 µM
[1]; up to 100 μM GCV
  effect on proliferation of wild-type 293 cells: not affected
[2]; 100 μM GCV, 3 d, methylene blue
  reduction of cell growth: 50%
[2]; Homo sapiens, HEK293, 90 h, average ± s.d. of 4 profiles, read-out: IC50 growth inhibition, average
  IC50: 26 ± 11 µM
[2]; read-out: individual IC50 profiles (averages of triplicates)
  IC50: 41 µM and 19 µM and 17 µM

## Cn1c2ccccc2c2c3c(c4c5ccccc5n(CCC#N)c4c21)CNC3=O [GÖ6976]
[3]; 5 nM and 50 nM inhibitor, GCV 2.5 and 5 μM, pl18neo-UL97, LDH activity after 5 days
  specific inhibition of UL97 activity: stronger at the 50-nM than at the 5-nM concentration
[3]; 50 nM inhibitor, GCV 1.25-160 μM, 5 days, colour conversion and LDH activity
  identification as UL97-specific inhibitor: identified as UL97-specific inhibitors
[3]; 500 nM inhibitor, GCV 2.5 and 5 μM, LDH activity after 5 days
  inhibition of UL97 activity at the highest concentration (decrease in LDH activity indicates cytotoxicity): markedly decreased

## CN[C@@H]1C[C@H]2O[C@@](C)([C@@H]1OC)n1c3ccccc3c3c4c(c5c6ccccc6n2c5c31)C(=O)NC4 [STP, staurosporine]
[4]
  inherent (nonspecific) cytotoxicity versus specific pUL97 inhibition: nonspecific cytotoxicity

From patent publication US20030152910A1, “Method for identification and quantification of kinase inhibitors” (priority 1999, published 2003)
